Test results from US20100093643A1 (priority 2006, published 2010).
Like-named read-outs stand apart in the source and are kept apart here. Square brackets hold non-standard residues; d marks the D form. Ends that are not written are not given here. Phe(4-NO2) = N[C@@H](Cc1ccc([N+](=O)[O-])cc1)C(=O)O; dDab = NCC[C@@H](N)C(=O)O

How the values were obtained:
outbreed male mice = experiment: Analgesic activity in vivo, tail pinch method; parameters: species or system mouse; conditions: for Duration of analgesic effect at ED60-80 / ED50 nmol/animal (dose interval) / Relative analgesic activity morphine = 1: intracisternal administration
Experimental: Analgesic activity of enkephalin analogues was determined by a “tail pinch” method [Ueda H.; Amano H.; Shiomi H.; Takagi H. (1979). Eur. J. Pharmacol., 56, 265-268]. […] Ten mice were used in each experiment.
The studied substances were dissolved in sterile physiological solution and injected in J-shaped needles into the brain of conscious mice at a dose of 10 μl. Control animals received 10 μl of sterile physiological solution. Intravenous administration was into the tail vein. Analgesic activity was tested by pinching the mouse tail with an artery clip with 200 g pressure. The mice who bit the clip within one second after application of pinching were selected for assays. Analgesic activity was defined as latency on the biting response greater than 6 sec. The analgesic tests were performed 5, 15, 30, 60 and 90 min after administration and then every 30 min until the analgesic reaction was stopped. The analgesic activity of the peptides was expressed as a percentage of mice not showing the biting response.

CD-1 male mice = experiment: Analgesic activity in vivo, hot plate method; parameters: species or system mouse; conditions: for analgesic effect in words: hot plate
Experimental: Male Swiss albino mice (CD1), weighing 20-22 g were used throughout the study. The animals were housed in solid bottom polycarbonate cages with access to standard laboratory diet (Laboratory Rodent Diet PK-120) and tap water ad libitum, under controlled environmental conditions (temperature:18-26° C., 8 a.m. to 8 p.m. light-dark cycle). Mice were tested only once.
The Hot-plate-meter represents the thermostatic controllable, electro-heated up surface limited by transparent walls (L: 25 cm, W: 25 cm, H: 35 cm). The forward panel of the device is equipped by buttons for the control of time and a temperature mode (Columbus Instruments).
The i.v. administration was performed via tail vein as a bolus injection. The doses for all animals were calculated on the basis of the last value of the individual body weight.
The animals accurately were placed on the preheated hot plate (55±0.5° C.) after i.v. injection of saline or peptides and the latencies to first paw licking and first jumping were measured. The other behavioral reactions were ignored. The animals were removed from a hot surface after the first jumping. A cut-off time of 180 s was used to avoid tissue damage.
To evaluate the hot-plate test responses, the control latencies (t0) and test latencies (t1) were determined after injection of saline or peptides, respectively. The percentage of the maximal possible effect (% MPE) was calculated as % MPE=(t1−t0)/(t2−t0)×100, where the cut-off time (t2) was 180 s.
The latency for the first jumping is considered as the most indicative in the hot-plate test. The area under the time-response curve was calculated by methods described elsewhere (Cicero and Meyer, 1973), to assess the magnitude of antinociception (FIG. 5, see appendix).
The median analgesic dose (ED50) also has been calculated for this parameter.

[1] = tested on: BALB mice under normobaric hypoxic hypoxia; experiment: Antihypoxic action, lifetime of mice under normobaric hypoxic hypoxia; type: in vivo, mouse
Experimental: Antihypoxic action of the new enkephalin analogue (1) was determined by the measurement of lifetime duration in mice under the normobaric hypoxic hypoxia conditions.
The experiments were conducted on BALB-bread mice weighing 20 to 22 g. The normobaric hypoxic hypoxia conditions were modelled by placing the animals in hermetic camera, containing Ca(OH)2 to absorb the excess of carbon dioxide. The substances studied were injected intraperitoneally 1 min. before the placing of animals in the hermetic camera. The peptides were used at doses 1.0 mg/kg. […] Sodium oxybutyrate at highest therapeutic dose was used as comparative compound. The lifetime was estimated as the time when the animals stopped making breathing movements.

[2] = tested on: rats with ligature of coronary arteries; type: in vivo, rat; parameters: myocardial necrosis size: unit not given here
[3] = biological target: T1, peripheral opiate receptors, guinea pig ileum (GPI, predominantly μ-type of opioid receptor) (Cavia porcellus, UniProt A0ACM8Q262); conditions: [Leu^5]-enkephalin = 100
T1 construct: other: guinea pig ileum longitudinal muscle, electrical stimulation; GPI Relative potency, %; other: GPI assay

[4] = tested on: peripheral opiate receptors, guinea pig ileum (GPI, predominantly μ-type of opioid receptor); conditions: ratio of relative potencies GPI to MVD
[5] = tested on: peripheral opiate receptors, mouse vas deferens (MVD); experiment: MVD bioassay, suppression of electrically induced contraction
Experimental: Brit. J. Pharmacol., 35, 10-28]. The longitudinal muscle of ileum from guinea pig of any sex (weight 350-500 g) was carefully separated from underlying circular muscle and placed into a small bath with Krebs solution at 36° C.
The solution was constantly aerated. A constant load of 0.2 g was applied to the tissue. The tissue was stimulated by means of the ring platinum electrodes by single impulses of […] duration with 0.1 Hz frequency. […] Vas deferens of mice (weight 27 to 30 g) were placed into a bath with modified Krebs solution (not containing magnesium sulphate) at 31° C. The substances under study were dissolved in distilled water. The inhibiting activity of the compounds was determined by accumulating doses, adding increasing concentrations of the compounds without washing. The activity of the preparations was expressed as IC50 in nmol/l. The results obtained in 8-10 tests were statistically processed using Student's criterion.

[6] = tested on: male Sprague-Dawley rats, left coronary artery occlusion (LCAO); experiment: Cardiac ischemia rat model, left coronary artery occlusion 25 min / reperfusion 120 min, infarct size; type: in vivo
Experimental: Male Sprague-Dawley (CD) rats weighing 280-380 g were used throughout this study. The rats were anesthetized by i.p. administration of urethane (1-1.5 g/kg). A tracheotomy was performed, and the trachea of the animal was intubated with a cannula connected to a rodent ventilator (model UGO BASILE 7025). Body temperature was maintained at 37° C. by use of a heating pad and monitored using rectally placed temperature probes connected to a digital thermometer. Body temperature is monitored and maintained at 37±1° C.)
The femoral artery was isolated and cannulated to measure blood pressure (BP) by a BP transducer (model PN:1891-E45, DTX™, Singapore) connected with computer. Mean arterial pressure and heart rate was calculated by special software. The right femoral vein was cannulated to allow administration of peptides or saline and methylene blue dye.
A left thoracotomy was performed to expose the heart at the fifth intercostal space. The pericardium was removed and a suture was placed under the left coronary artery in the groove between the pulmonary outflow track and left ventricle. With the tubing placed on the myocardial surface, the ligature could be tightened around the left coronary artery and clamped to provide a readily reversible occlusion of blood flow. Hemodynamics and body temperature were monitored during the procedure.
The protocol of experiments conducted in urethane-anesthetized open-chest rats subjected to regional myocardial ischemia-reperfusion is illustrated in FIG. 1 (see appendix).
All animals were subjected to 25 minutes of occlusion and 2 hours of reperfusion. Several doses (0.1 μg/kg-1 μg/kg) of the peptide (4) were given 5 minutes before occlusion. The coronary artery in all rats was occluded by pulling up on the suture and clamping it with plastic tube. At 25 minutes, the clump was released and coronary artery reperfusion was allowed. The surface of the left ventricle pinks up. After 120 min of reperfusion, the ligature was again tightened to occlude the left coronary artery, and […] methylene blue dye (0.4 ml of 10% w/v in saline) was injected. Once the dye had stained the heart, except in the area at risk, clearly demarcating the total area at risk (AAR), the heart was then quickly removed from the animal and washed out in a water, and the atria, valvular material and right ventricular wall were removed leaving just the left ventricle. The left ventricle was then sectioned transversely into 2-mm slices. The area defined as normal (dyed blue) was separated from the AAR (not dyed blue), and the slices are stained by incubation in 1% 2,3,5-triphenyltetrazolium chloride in pH 7.4 buffer for 15 min at 37° C. Infarcted areas appeared whitish after 2,3,5-triphenyltetrazolium chloride staining, whereas non-infarcted, or viable, areas appeared reddish in colour. Then the slices were immersed in 10% formalin for 5 minutes for fixing.
The slices were photographed. The areas of infarct (2,3,5-triphenyltetrazolium chloride negative) and risk zone (2,3,5-triphenyltetrazolium chloride stained) for each slice are traced and digitized using a computerized planimetry technique. The areas of each region were estimated using computerized planimetry (program “ImageTool”)
The infarct area was divided by the area at risk to determine the ratio of the infarct area/area at risk. (IS/AAR). Data were presented as infarct size (IS) as a percentage of the AAR (i.e., % IS/AAR) for statistical analysis of cardioprotective effects (decreased % IS/AAR). The statistical comparison for in vivo infarct reduction was made with vehicle controls.
A dose-response curve for the cardioprotective effects of peptide (4), compared with vehicle (n=12), was produced with i.v. peptide (4) doses of 0.01 (n=6), 0.1 (n=12), 1.0 (n=12) μg/kg, and 0.005 (n=12) mg/kg administered 5 min before LCAO in a 1 ml/kg dosing volume as a bolus. […]

[7] = tested on: male Sprague-Dawley rats, left coronary artery occlusion (LCAO); experiment: as above; type: in vivo; remark: listed apart in the source
[8] = i.v., dose 8 μmol/kg, jump latency time (FIG. 4)
[9] = intravenous administration, time point of 15 min
[10] = 0.1 μg/kg i.v. 5 min before occlusion
[11] = 5 μg/kg i.v. 5 min before occlusion

T1 sequence (A0ACM8Q262 1-400): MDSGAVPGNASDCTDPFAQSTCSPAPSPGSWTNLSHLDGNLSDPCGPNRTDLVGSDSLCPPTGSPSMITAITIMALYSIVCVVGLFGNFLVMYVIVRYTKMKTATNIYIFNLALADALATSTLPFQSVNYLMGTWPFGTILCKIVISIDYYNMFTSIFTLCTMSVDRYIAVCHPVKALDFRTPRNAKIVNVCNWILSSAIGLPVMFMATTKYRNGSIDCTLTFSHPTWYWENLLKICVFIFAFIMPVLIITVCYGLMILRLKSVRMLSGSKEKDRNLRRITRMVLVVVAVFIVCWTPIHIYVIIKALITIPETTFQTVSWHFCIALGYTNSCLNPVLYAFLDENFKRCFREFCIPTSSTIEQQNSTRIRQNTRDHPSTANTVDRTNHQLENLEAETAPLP

## CN1CC[C@]23c4c5ccc(O)c4O[C@H]2[C@@H](O)C=C[C@H]3[C@H]1C5 [Morphine, reference compound]
Outbreed male mice; Mus musculus, intravenous administration, read-out: ED50 μmol/kg (dose interval)
  ED50: 18 µmol/kg
CD-1 male mice; Mus musculus, 0.25 h, intravenous administration, time point of 15 min, read-out: ED50 (jump latency)
  ED50: 2.67 mg/kg

## O=C(O)CCCO [Sodium oxybutyrate, reference compound]
[1]; 1000.0 mg/kg (highest therapeutic dose) i.p. 1 min before hermetic chamber
  Duration of life: 15.5 ± 0.4 min
[1]; 1000.0 mg/kg i.p.
  lifetime increase in comparison with the control experiments: 24%

## CC(C)NCC(O)COc1cccc2ccccc12.Cl (stereo not drawn) [anaprilinum, reference compound]
[2]; comparison medicines at highest therapeutic doses, observation time 12 hours
  myocardial necrosis size: 53.80 ± 1.90

## O=[N+]([O-])OCC(CO[N+](=O)[O-])O[N+](=O)[O-] [nitroglycerine, reference compound]
[2]; rat, in vivo
  myocardial necrosis size: 54.04 ± 1.76
[2]; rat, in vivo, 0.05 mg/kg
  CPK: 101.1 ± 6.1 units/l
  HF-CPK: 19.8 ± 1.1 units/l
  Lactate: 1.80 ± 0.09 mmol/L

## Tyr-D-Orn(Ac-Asn)-Gly-Phe(p-NO2)—NH2 [Peptide 3]
CD-1 male mice; [8]
  delay of analgesic effect: 15 min
CD-1 male mice; i.v.
  analgesic effect in words: practically similar to that of morphine
CD-1 male mice; [9]
  ED50 (jump latency): 2.04 mg/kg

## Tyr-D-Orn(Ac-Gly)-Gly-Phe(p-NO2)—NH2 [Peptide 5]
CD-1 male mice; i.v.
  analgesic effect in words: practically similar to that of morphine
CD-1 male mice; [9]
  ED50 (jump latency): 1.99 mg/kg

## Tyr-Gly-Gly-Phe-Leu [[Leu^5]-enkephalin, reference compound]
Outbreed male mice
  Duration of analgesic effect at ED60-80: 15 min
  ED50 nmol/animal (dose interval): 174 (102-281) nmol/animal
  Relative analgesic activity morphine = 1: 0.007
[3]
  GPI Relative potency, %: 100%
[4]
  GPIrel/MVDrel: 1
[5]; [Leu^5]-enkephalin = 100
  MVD Relative potency, %: 100%
[5]; mouse vas deferens, electrical stimulation
  IC50: 20 ± 1 nM

## Tyr-Gly-Gly-Phe-Met [[Met^5]-enkephalin, reference compound]
Outbreed male mice
  Duration of analgesic effect at ED60-80: 15 min
  ED50 nmol/animal (dose interval): 154 (90-261) nmol/animal
  Relative analgesic activity morphine = 1: 0.008

## Y[dDab](Ac)G[Phe(4-NO2)]-NH2 [Peptide 4]
[6]; 0.01 μg/kg i.v. 5 min before occlusion
  IS/AAR, % (infarct size as % of area at risk): 45.1±4.6%
[6]; [10]
  IS/AAR, % (infarct size as % of area at risk): 32.0 ± 3.5%
  Relative Reduction of Infarct size, % (Control = 0): 25.4%
[6]; 1 μg/kg i.v. 5 min before occlusion
  IS/AAR, % (infarct size as % of area at risk): 26.0 ±3.5%
[6]; [11]
  IS/AAR, % (infarct size as % of area at risk): 32.5 ± 2.5%
  Relative Reduction of Infarct size, % (Control = 0): 24.2%
CD-1 male mice; [8]
  time of maximum analgesic effect: 30 min
CD-1 male mice; i.v.
  analgesic effect in words: weaker than the effect of the other four peptides tested
[7]; 1.0 μg/kg i.v. immediately after removal of the LCAO (start of reperfusion)
  IS/AAR, level of ischemic damage: 32.5±2.4%
[7]; doses between 0.2 μg/kg and 3.2 μg/kg, 5 min before ischemia (dose-response curve)
  infarct size as % of Area at Risk (IS/AAR): smaller than 30%

## Y[dK](Ac)G[Phe(4-NO2)]-NH2 [Peptide 2]
CD-1 male mice; [9]
  ED50 (jump latency): 1.7 mg/kg
CD-1 male mice; intravenous, from ED50 at 15 min
  analgesic activity exceeding that of morphine: 1.5 times
